Measured values: patent US8642572B2, “Cytidine derivative-containing antitumor agent for continuous intravenous administration” (Taiho Pharmaceutical Co., Ltd., priority 2007, dated 2014)

Columns and labels:
[1] = test system: human lung tumor cells (A549 strain); experiment: Effect of ECyd contact schedule on growth inhibition of A549 cells (Crystal Violet staining, constant AUC); assay type: cell-based
Method: The effects of the ECyd contact schedule on growth inhibition of human lung tumor cells (A549 strain) were investigated.
(§1) The experiment of Example 4 was performed at a constant AUC (product of contact time and ECyd concentration). Specifically, in each tested regimen, AUC was maintained at such a level that the ECyd concentration was adjusted to provide IC80 (0.08 μM) as a result of contact between ECyd and the A549 cells for 100 hours. In each tested regimen, A549 cells were seeded on a plate and treated with ECyd. Subsequently, the cell culture liquid was exchanged. The profile of cell growth thereafter was obtained through staining with Crystal Violet.

[2] = test system: neural-crest-derived rat adrenal medulla chromaffin cells (PC12 strain); experiment: Effect of ECyd contact schedule on growth inhibition of PC12 cells (Crystal Violet staining, constant AUC); assay type: cell-based; settings: for growth of PC12 cells after ECyd contact: constant AUC
Method: The effects of the ECyd contact schedule on growth inhibition of neural-crest-derived rat adrenal medulla chromaffin cells (PC12 strain) were investigated.
as §1, with “3” for “4”, “PC12” for “A549”

cancer patients = settings: rapid intravenous injection, once every three weeks or once a week for three weeks and one week rest; cited from earlier work
[3] = test system: patients of solid cancers; experiment: Test in cancer patients, 4-hour continuous vs rapid intravenous administration, neurotoxicity occurrence and therapeutic effect; assay type: in vivo, human
Method: (§2) The above test is equivalent to the phase I clinical trial, which is performed mainly for evaluating safety of the tested drug and determining the recommended dose (RD) of the drug, which ensures safety of the drug without adverse effects in the phase II clinical trial carried out with respect to the target cancer. The test is carried out for patients of solid cancers (e.g., gastrointestinal cancers, head and neck cancer, and breast cancer) which cannot be cured by a standard therapeutic method or to which no effective method is applicable. When the test is performed, if possible, the therapeutic effect on the target tumor is assessed. In the following examples, the therapeutic effect on the target tumor was assessed in accordance with the RECIST method (see Journal of the National Cancer Institute, 2000, Vol. 92, No. 3, p. 205 to 216). The effect of ECyd on shrinkage of the tumor was confirmed generally from a target lesion (a lesion having a size equal to or greater than the measurable size depending on the slice width obtained through CT or similar means) and the non-target lesions (all lesions other than the target lesion). […] PD (progressive disease) refers to a state in which the sum of the longer diameters of target lesions was increased by 20% or more as compared with the minimum sum of the longer diameters recorded after start of the test, or a state in which clear exacerbation in the non-target lesions or a new lesion was observed. SD (stable disease) refers to a state in which the degree of tumor shrinkage cannot be evaluated as PR and which cannot be evaluated as PD, and in which the tumor progress has stopped and no exacerbation was observed. MR (minor response) refers to a case in which a certain tumor shrinkage degree of about 15% was maintained (although it was less than 30%), or in which a therapeutic effect corresponding to PR is temporarily observed.
A course including a 4-hour continuous intravenous administration once every three weeks out of a continuous four-week period at a dose of 1.30 mg/m^2 as reduced to ECyd for each administration was repeatedly performed. Also, a course including a rapid intravenous administration once every three weeks out of a continuous four-week period at a dose of 1.32 mg/m^2 as reduced to ECyd was repeatedly performed. In both cases, the neurotoxicity occurrence and the therapeutic effect by ECyd were investigated. In Example 2, selection of the patients and the method and ratings of evaluation were the same as employed in Example 1.

[4] = test system: patients of solid cancers; experiment: Phase I-equivalent test in cancer patients, once every three weeks: 24-hour continuous vs rapid intravenous administration, neurotoxicity occurrence and therapeutic effect (RECIST); assay type: in vivo, human
Method: A group of cancer patients was repeatedly subjected to a course including a 24-hour continuous intravenous administration once every three weeks at a dose of 2.80 to 8.56 mg/m^2 as reduced to ECyd for each administration. Another group of cancer patients was repeatedly subjected to a course including a rapid intravenous administration once every three weeks at a dose of 2.81 to 9.46 mg/m^2 as reduced to ECyd. In both cases, the neurotoxicity occurrence and the therapeutic effect by ECyd were investigated.
as §2

[5] = rapid intravenous administration once every three weeks, 6.31 mg/m^2

C#C[C@@]1(O)[C@@H](CO)O[C@@H](n2ccc(N)nc2=O)[C@@H]1O [ECyd, 1-(3-C-Ethynyl-β-D-ribopentofuranosyl)cytosine]
IC80 ([1]; Homo sapiens, A549 cells, contact for 100 hours): 80 nM | growth of A549 cells after ECyd contact ([1]; contact times of 0.5 to 100 hours, constant AUC, day 6): virtually unrestored | IC80 ([2]; Rattus norvegicus, PC-12, PC12 cells, contact for 100 hours): 80 nM | growth of PC12 cells after ECyd contact ([2]; contact time of 0.5 hours, day 6): virtually unrestored | growth of PC12 cells after ECyd contact ([2]; contact times of 25 and 100 hours): restored | dose-limiting toxicity (cancer patients): peripheral neurotoxicity was observed as a dose-limiting toxicity | therapeutic efficacy (SD or higher) ([3]; 4-hour continuous intravenous administration, 1.30 mg/m^2): 66% | cases exhibiting peripheral neurotoxicity ([3]; 4-hour continuous intravenous administration, 1.30 mg/m^2, one of the three cases): 33% | therapeutic efficacy (SD or higher) ([3]; rapid intravenous administration, 1.32 mg/m^2): no therapeutic efficacy (SD or higher) was observed | cases exhibiting peripheral neurotoxicity ([3]; rapid intravenous administration, 1.32 mg/m^2, one of the three cases): 33% | peripheral neurotoxicity ([4]; 24-hour continuous intravenous administration once every three weeks, 2.80 mg/m^2 to 5.48 mg/m^2): no peripheral neurotoxicity was observed | therapeutic effect ([4]; rapid intravenous administration once every three weeks, 2.81 mg/m^2): no therapeutic effect was observed | cases exhibiting peripheral neurotoxicity ([4]; rapid intravenous administration once every three weeks, 2.81 mg/m^2, two of the three cases): 66% | cases exhibiting peripheral neurotoxicity [4, 5]: two of the three cases | therapeutic efficacy (SD or higher) [4, 5]: two of the three cases
